These results are taken from ChEMBL document CHEMBL4152339, “Design and synthesis of novel 1H-tetrazol-5-amine based potent antimicrobial agents: DNA topoisomerase IV and gyrase affinity evaluation supported by molecular docking studies” (Eur J Med Chem, 2018).

SMILES strings stand for the structures. ≈ marks a conversion by molar mass, not a printed value.

The test system of one data set is Micrococcus luteus. Kind of data set: Antibacterial activity against Micrococcus luteus ATCC 10240 after 18 hrs by CLSI disc diffusion method. Format: functional. To be noted: ATCC 10240, 18 h.
`O=C(O)n1nnnc1NCCc1c[nH]c2ccccc12` showed an MIC of 15 µM (≈ 4.08 µg/mL).
On the same count and under the same terms, the value for `O=[N+]([O-])c1ccc(-n2nnnc2Nn2cnnc2)cc1` was 59 µM (≈ 16.1 µg/mL).

The next data set relates to Proteus vulgaris. Kind of data set: Antibacterial activity against Proteus vulgaris NCTC 4635 after 18 hrs by CLSI disc diffusion method. The class given is functional. To be noted: NCTC 4635, 18 h.
On to `O=C(O)n1nnnc1NCCc1c[nH]c2ccccc12`, for which the MIC was 15 µM (≈ 4.08 µg/mL).
Same read-out and setting: the value for `O=[N+]([O-])c1ccc(-n2nnnc2Nn2cnnc2)cc1` was 117 µM (≈ 32 µg/mL).

The subject of a further data set is Staphylococcus aureus. Nature of the data set: Antibacterial activity against Staphylococcus aureus NCTC 4163 after 18 hrs by CLSI disc diffusion method. Format: functional. To be noted: NCTC 4163, 18 h. A general note: Agar diffusion results depend on both activity and mobility in agar.
In turn, `O=C(O)n1nnnc1NCCc1c[nH]c2ccccc12` came in with an MIC of 59 µM (≈ 16.1 µg/mL).
Regarding `O=[N+]([O-])c1ccc(-n2nnnc2Nn2cnnc2)cc1`, the MIC worked out at 7 µM (≈ 1.91 µg/mL).

The next data set deals with Escherichia coli. Kind of data set: Antibacterial activity against Escherichia coli ATCC 10538 after 18 hrs by CLSI disc diffusion method. The class given is functional. Particulars: ATCC 10538, 18 h.
As to `O=C(O)n1nnnc1NCCc1c[nH]c2ccccc12`, the MIC is 29 µM (≈ 7.9 µg/mL).
On to `O=[N+]([O-])c1ccc(-n2nnnc2Nn2cnnc2)cc1`, for which inhibition of growth (MIC) required 117 µM (≈ 32 µg/mL).

Another data set deals with HaCaT. Nature of the data set: Cytotoxicity activity against human HaCaT cells assessed as reduction in cell viability after 72 hrs by MTT assay.
Conditions: not given
Format: cell-based. For orientation: Formazan colour is commonly taken as a measure of viable cells.
As for `O=[N+]([O-])c1ccc(-n2nnnc2Nn2cnnc2)cc1`, the IC50 came out at 65 µM.

Test system in another data set: not listed separately
Nature of the data set: Selectivity index, ratio of IC50 for human HaCaT cells to MIC for Enterococcus hirae ATCC 10541. The class given is toxicity. To be noted: read-out: Selectivity Index.
On to `O=[N+]([O-])c1ccc(-n2nnnc2Nn2cnnc2)cc1`, for which the selectivity ratio was 2.24.

The subject of the next data set is Bacillus cereus. Kind of data set: Antibacterial activity against Bacillus cereus ATCC 11778 after 18 hrs by CLSI disc diffusion method. Format: functional. To be noted: ATCC 11778, 18 h.
As to `O=C(O)n1nnnc1NCCc1c[nH]c2ccccc12`, it took 7 µM (≈ 1.91 µg/mL) to inhibit growth (MIC).
The compound `O=[N+]([O-])c1ccc(-n2nnnc2Nn2cnnc2)cc1` showed an MIC of 29 µM (≈ 7.92 µg/mL).

Test system in the next data set: not listed separately
Kind of data set: Selectivity index, ratio of IC50 for human HaCaT cells to MIC for Staphylococcus aureus NCTC 4163. Particulars: read-out: Selectivity Index. Format: toxicity.
With `O=[N+]([O-])c1ccc(-n2nnnc2Nn2cnnc2)cc1`, the selectivity ratio came to 9.28.

Test system in another data set: not listed separately
Nature of the data set: Selectivity index, ratio of IC50 for human HaCaT cells to MIC for Micrococcus luteus ATCC 10240. To be noted: read-out: Selectivity Index. The class given is toxicity.
Take `O=[N+]([O-])c1ccc(-n2nnnc2Nn2cnnc2)cc1`: the selectivity ratio is 1.1.

Test system in a further data set: not listed separately
Nature of the data set: Selectivity index, ratio of IC50 for human HaCaT cells to MIC for Proteus vulgaris NCTC 4635. Format: toxicity. Particulars: read-out: Selectivity Index.
In the case of `O=[N+]([O-])c1ccc(-n2nnnc2Nn2cnnc2)cc1`, the selectivity ratio amounted to 0.55.

In the next data set the test system is Micrococcus luteus. Nature of the data set: Antibacterial activity against Micrococcus luteus ATCC 9341 after 18 hrs by CLSI disc diffusion method. The class given is functional. Particulars: ATCC 9341, 18 h.
Regarding `O=C(O)n1nnnc1NCCc1c[nH]c2ccccc12`, inhibition of growth (MIC) required 15 µM (≈ 4.08 µg/mL).
Compound `O=[N+]([O-])c1ccc(-n2nnnc2Nn2cnnc2)cc1` showed an MIC of 59 µM (≈ 16.1 µg/mL).

A further data set has as its system A549. Kind of data set: Cytotoxicity activity against human A549 cells assessed as reduction in cell viability after 72 hrs by MTT assay. The class given is cell-based. Particulars: A549, 72 h.
`O=[N+]([O-])c1ccc(-n2nnnc2Nn2cnnc2)cc1`: the IC50 is 60 µM.

Test system in a further data set: not listed separately
Kind of data set: Selectivity index, ratio of IC50 for human HaCaT cells to MIC for Escherichia coli ATCC 10538. The class given is toxicity. To be noted: read-out: Selectivity Index.
On to `O=[N+]([O-])c1ccc(-n2nnnc2Nn2cnnc2)cc1`, for which the selectivity ratio is 0.55.

The next data set relates to Staphylococcus aureus. Kind of data set: Antibacterial activity against Staphylococcus aureus ATCC 25923 after 18 hrs by CLSI disc diffusion method. To be noted: ATCC 25923, 18 h. The class given is functional.
`O=C(O)n1nnnc1NCCc1c[nH]c2ccccc12` had an MIC of 15 µM (≈ 4.08 µg/mL).
In turn, `O=[N+]([O-])c1ccc(-n2nnnc2Nn2cnnc2)cc1` displayed an MIC of 7 µM (≈ 1.91 µg/mL).

The test system of the next data set is Staphylococcus epidermidis. Nature of the data set: Antibacterial activity against Staphylococcus epidermidis ATCC 35984 after 18 hrs by CLSI […] method. Format: functional. To be noted: ATCC 35984, 18 h.
In turn, `O=C(O)n1nnnc1NCCc1c[nH]c2ccccc12` gave an MIC of 15 µM (≈ 4.08 µg/mL).
With `O=[N+]([O-])c1ccc(-n2nnnc2Nn2cnnc2)cc1`, the MIC turned out to be 4 µM (≈ 1.09 µg/mL).

The test system of the next data set is Enterococcus faecalis. Nature of the data set: Antibacterial activity against Enterococcus faecalis ATCC 29212 after 18 hrs by CLSI disc diffusion method. Format: functional. To be noted: ATCC 29212, 18 h.
As to `O=C(O)n1nnnc1NCCc1c[nH]c2ccccc12`, 59 µM (≈ 16.1 µg/mL) was the least that counted as inhibitory (MIC).
`O=[N+]([O-])c1ccc(-n2nnnc2Nn2cnnc2)cc1`: the MIC is 234 µM (≈ 63.9 µg/mL).

The test system of another data set is Pseudomonas aeruginosa. Nature of the data set: Antibacterial activity against Pseudomonas aeruginosa ATCC 27853 after 18 hrs by CLSI disc diffusion method. Format: functional. Particulars: ATCC 27853, 18 h.
`O=C(O)n1nnnc1NCCc1c[nH]c2ccccc12` gave an MIC of 471 µM (≈ 128 µg/mL).
`O=[N+]([O-])c1ccc(-n2nnnc2Nn2cnnc2)cc1`: the MIC is 938 µM (≈ 256 µg/mL).

Test system in the next data set: not listed separately
Kind of data set: Selectivity index, ratio of IC50 for human HaCaT cells to MIC for Bordetella bronchiseptica ATCC 4617. The class given is toxicity. Particulars: read-out: Selectivity Index.
As for `O=[N+]([O-])c1ccc(-n2nnnc2Nn2cnnc2)cc1`, the selectivity ratio stood at 0.55.

Test system in another data set: not listed separately
Nature of the data set: Selectivity index, ratio of IC50 for human HaCaT cells to MIC for Bacillus subtilis ATCC 6633. Format: toxicity. To be noted: read-out: Selectivity Index.
As for `O=[N+]([O-])c1ccc(-n2nnnc2Nn2cnnc2)cc1`, the selectivity ratio was found to be 2.24.

For another data set, the system named is Pseudomonas aeruginosa. Nature of the data set: Antibacterial activity against Pseudomonas aeruginosa ATCC 15442 after 18 hrs by CLSI disc diffusion method. The class given is functional. Particulars: ATCC 15442, 18 h.
In turn, `O=C(O)n1nnnc1NCCc1c[nH]c2ccccc12` returned an MIC of 471 µM (≈ 128 µg/mL).
For `O=[N+]([O-])c1ccc(-n2nnnc2Nn2cnnc2)cc1`, 938 µM (≈ 256 µg/mL) was the least that counted as inhibitory (MIC).

In another data set the test system is Staphylococcus epidermidis. Kind of data set: Antibacterial activity against Staphylococcus epidermidis ATCC 12228 after 18 hrs by CLSI disc diffusion method. The class given is functional. To be noted: ATCC 12228, 18 h.
With `O=C(O)n1nnnc1NCCc1c[nH]c2ccccc12`, the MIC came to 29 µM (≈ 7.9 µg/mL).
`O=[N+]([O-])c1ccc(-n2nnnc2Nn2cnnc2)cc1` showed an MIC of 4 µM (≈ 1.09 µg/mL).

A further data set has as its system Bordetella bronchiseptica. Nature of the data set: Antibacterial activity against Bordetella bronchiseptica ATCC 4617 after 18 hrs by CLSI disc diffusion method. The class given is functional. To be noted: ATCC 4617, 18 h.
Regarding `O=C(O)n1nnnc1NCCc1c[nH]c2ccccc12`, inhibition of growth (MIC) required 29 µM (≈ 7.9 µg/mL).
`O=[N+]([O-])c1ccc(-n2nnnc2Nn2cnnc2)cc1`: the MIC was determined as 117 µM (≈ 32 µg/mL).

The test system of another data set is Enterococcus hirae. Nature of the data set: Antibacterial activity against Enterococcus hirae ATCC 10541 after 18 hrs by CLSI disc diffusion method. The class given is functional. Particulars: ATCC 10541, 18 h.
Compound `O=C(O)n1nnnc1NCCc1c[nH]c2ccccc12` returned an MIC of 29 µM (≈ 7.9 µg/mL).
The same measure, in the same setting: for `O=[N+]([O-])c1ccc(-n2nnnc2Nn2cnnc2)cc1` the value was 29 µM (≈ 7.92 µg/mL).

Another data set relates to Bacillus spizizenii. Nature of the data set: Antibacterial activity against Bacillus subtilis ATCC 6633 after 18 hrs by CLSI disc diffusion method. Format: functional. Particulars: ATCC 6633, 18 h.
Consider `O=C(O)n1nnnc1NCCc1c[nH]c2ccccc12`, for which the MIC came out at 15 µM (≈ 4.08 µg/mL).
On the same count and under the same terms, the value for `O=[N+]([O-])c1ccc(-n2nnnc2Nn2cnnc2)cc1` was 29 µM (≈ 7.92 µg/mL).

The next data set deals with Staphylococcus aureus. Nature of the data set: Antibacterial activity against Staphylococcus aureus ATCC 6538 after 18 hrs by CLSI disc diffusion method. Format: functional. Particulars: ATCC 6538, 18 h.
Regarding `O=C(O)n1nnnc1NCCc1c[nH]c2ccccc12`, the MIC was 15 µM (≈ 4.08 µg/mL).
On the same count and under the same terms, the value for `O=[N+]([O-])c1ccc(-n2nnnc2Nn2cnnc2)cc1` was 7 µM (≈ 1.91 µg/mL).

In general, MIC refers to the least concentration at which growth counts as inhibited. Low readings indicate greater potency, high ones weaker potency. As a reminder, the IC50 is the concentration that inhibits the measured activity by half.
